The text below walks through data of patent publication US20220142957A1, “TERPENE BASED THERAPEUTIC DEEP EUTECTIC SYSTEM, METHOD OF OBTAINING AND USES THEREOF” (priority 2019, published 2022).

As usually defined, the EC50 is the concentration at which the effect is half-maximal. A lower EC50 goes with greater potency.

Data set [1] has as its system HT29 cells. Put plainly: Cell cycle assessment by flow cytometry (propidium iodide). The following applies: 24 hours, non-cytotoxic concentrations (FIG. 5A).
The subject of data set [2] is HT29 cells. Put plainly: Apoptosis by caspase-3 activity (NucView488/MitoView633). The note with it: 2 mM, 24 hours (FIG. 5B). Type of data set: cell-based, human. On the procedure: In one embodiment, apoptosis was evaluated by caspase-3 activity using NucView488™ and MitoView633™ Apoptosis Assay Kit (Biotium, USA) that allows staining of living cells by a far-red fluorescent dye MitoView633™ and the intracellular caspase-3/7 activity and cells nuclei morphological changes by bright green fluorescent dye NucView488™. […] Staining was performed with 200 μL/well of culture medium containing 1 μL of NucView488™ and 1 μL of MitoView633™ for 2 hours. Cells were observed under fluorescence microscope (Leica DM6000, Germany) and image analysis performed using ImageJ software.

The test system of data set [3] is Caco-2 cells. The data set can be described thus: Cytotoxicity assay in confluent, non-differentiated Caco-2 cells (MTS). The format is cell-based, human. The note with it: isolated compounds, 24 hours, mean ± SD. On the procedure: (§1) The cell culture medium and supplements were purchased from Invitrogen (Gibco, Invitrogen Corporation, UK).
(§2) Cells incubated only with culture medium were considered as control. […] At least three independent experiments were performed in triplicate.
(§3) A p-value<0.05 was considered statistically significant.

Data set [4] has as its system HT29 cells. Put plainly: Antiproliferative assay in HT29 cells (MTS). The format is cell-based, human. The following applies: 24 hours, mean ± SD. On the procedure:
In one embodiment, human Caco-2 and HT29 cell lines were obtained from Deutsche Sammlung von Mikroorganismen and Zellkulturen (DSMZ, Germany) and American Type Culture Collection (ATCC, USA), respectively. These cell lines were cultured in RPMI 1640 medium supplemented with 10% of heat-inactivated Fetal Bovine Serum (FBS). […] Cells were maintained at 37° C. with 5% CO2 in a humidified incubator and routinely grown as a monolayer in 75 cm^2 culture flasks. The cell culture medium and supplements were purchased from Invitrogen (Gibco, Invitrogen Corporation, UK). In one embodiment, the antiproliferative effect of […] and standard compounds was evaluated in HT29 cells. Briefly, cells were seeded at a density of 1×10^4 cells/well in 96-well culture plates. […] Cells incubated only with culture medium were considered as control. Cell proliferation was measured after 24 hours using MTS reagent, as mentioned above. Results were expressed in terms of percentage of living cells relative to the control. At least three independent experiments were performed in triplicate. In one embodiment, all data were expressed as mean±Standard Deviation (SD).

Data set [5] can be described thus: Cytotoxicity assay in confluent, non-differentiated Caco-2 cells (MTS). The format is cell-based, human. The note with it: human, confluent, non-differentiated Caco-2 cells, isolated compounds, mean ± SD. On the procedure: as §1, §2, §3

As for `CC(C)Cc1ccc(C(C)C(=O)O)cc1` (stereo not shown) [IBU, Ibuprofen], the “effect on cell cycle” value in data set [1] is reported as “promoted cell cycle arrest in G1-phase”.

With S-Limonene, in data set [2], the “induction of apoptosis via caspase-3 activity” value is given as “capable of inducing apoptosis via caspase-3 activity”. Also, the EC50 in data set [3] worked out at 2640 ± 108 µM; in data set [4] (isolated compounds), 661 ± 25 µM. In data set [1], the “effect on cell cycle” value was “promoted cell cycle arrest in G1-phase”.

Turning to `CCCCCCCCCC(=O)O` [CA, Capric acid], the EC50 at 24 h in data set [5] amounted to 1330 ± 223 µM. For the same compound, a half-maximal response in data set [4] (Homo sapiens, HT-29, isolated compounds) (EC50) required 341 ± 81 µM.
